{
  "source": "patent US7550438B2",
  "about": "“Methods for production of growth-promoting proteins and peptides for kidney epithelial cells” (The University of Chicago, priority 1997, dated 2009)",
  "molecules": {"B1": {"name": "α2-macroglobulin (protein, UniProt P01023 24-1474, looked up)", "Alpha-2-macroglobulin": "SVSGKPQYMVLVPSLLHTETTEKGCVLLSYLNETVTVSASLESVRGNRSLFTDLEAENDVLHCVAFAVPKSSSNEEVMFLTVQVKGPTQEFKKRTTVMVKNEDSLVFVQTDKSIYKPGQTVKFRVVSMDENFHPLNELIPLVYIQDPKGNRIAQWQSFQLEGGLKQFSFPLSSEPFQGSYKVVVQKKSGGRTEHPFTVEEFVLPKFEVQVTVPKIITILEEEMNVSVCGLYTYGKPVPGHVTVSICRKYSDASDCHGEDSQAFCEKFSGQLNSHGCFYQQVKTKVFQLKRKEYEMKLHTEAQIQEEGTVVELTGRQSSEITRTITKLSFVKVDSHFRQGIPFFGQVRLVDGKGVPIPNKVIFIRGNEANYYSNATTDEHGLVQFSINTTNVMGTSLTVRVNYKDRSPCYGYQWVSEEHEEAHHTAYLVFSPSKSFVHLEPMSHELPCGHTQTVQAHYILNGGTLLGLKKLSFYYLIMAKGGIVRTGTHGLLVKQEDMKGHFSISIPVKSDIAPVARLLIYAVLPTGDVIGDSAKYDVENCLANKVDLSFSPSQSLPASHAHLRVTAAPQSVCALRAVDQSVLLMKPDAELSASSVYNLLPEKDLTGFPGPLNDQDNEDCINRHNVYINGITYTPVSSTNEKDMYSFLEDMGLKAFTNSKIRKPKMCPQLQQYEMHGPEGLRVGFYESDVMGRGHARLVHVEEPHTETVRKYFPETWIWDLVVVNSAGVAEVGVTVPDTITEWKAGAFCLSEDAGLGISSTASLRAFQPFFVELTMPYSVIRGEAFTLKATVLNYLPKCIRVSVQLEASPAFLAVPVEKEQAPHCICANGRQTVSWAVTPKSLGNVNFTVSAEALESQELCGTEVPSVPEHGRKDTVIKPLLVEPEGLEKETTFNSLLCPSGGEVSEELSLKLPPNVVEESARASVSVLGDILGSAMQNTQNLLQMPYGCGEQNMVLFAPNIYVLDYLNETQQLTPEIKSKAIGYLNTGYQRQLNYKHYDGSYSTFGERYGRNQGNTWLTAFVLKTFAQARAYIFIDEAHITQALIWLSQRQKDNGCFRSSGSLLNNAIKGGVEDEVTLSAYITIALLEIPLTVTHPVVRNALFCLESAWKTAQEGDHGSHVYTKALLAYAFALAGNQDKRKEVLKSLNEEAVKKDNSVHWERPQKPKAPVGHFYEPQAPSAEVEMTSYVLLAYLTAQPAPTSEDLTSATNIVKWITKQQNAQGGFSSTQDTVVALHALSKYGAATFTRTGKAAQVTIQSSGTFSSKFQVDNNNRLLLQQVSLPELPGEYSMKVTGEGCVYLQTSLKYNILPEKEEFPFALGVQTLPQTCDEPKAHTSFQISLSVSYTGSRSASNMAIVDVKMVSGFIPLKPTVKMLERSNHVSRTEVSSNHVLIYLDKVSNQTLSLFFTVLQDVPVRDLKPAIVKVYDYYETDEFAIAEYNAPCSKDLGNA"}, "B2": {"name": "heparinase III: enzyme heparinase III (Sigma) (protein, UniProt Q59289 25-659, looked up)", "Heparin-sulfate lyase": "QSSSITRKDFDHINLEYSGLEKVNKAVAAGNYDDAAKALLAYYREKSKAREPDFSNAEKPADIRQPIDKVTREMADKALVHQFQPHKGYGYFDYGKDINWQMWPVKDNEVRWQLHRVKWWQAMALVYHATGDEKYAREWVYQYSDWARKNPLGLSQDNDKFVWRPLEVSDRVQSLPPTFSLFVNSPAFTPAFLMEFLNSYHQQADYLSTHYAEQGNHRLFEAQRNLFAGVSFPEFKDSPRWRQTGISVLNTEIKKQVYADGMQFELSPIYHVAAIDIFLKAYGSAKRVNLEKEFPQSYVQTVENMIMALISISLPDYNTPMFGDSWITDKNFRMAQFASWARVFPANQAIKYFATDGKQGKAPNFLSKALSNAGFYTFRSGWDKNATVMVLKASPPGEFHAQPDNGTFELFIKGRNFTPDAGVFVYSGDEAIMKLRNWYRQTRIHSTLTLDNQNMVITKARQNKWETGNNLDVLTYTNPSYPNLDHQRSVLFINKKYFLVIDRAIGEATGNLGVHWQLKEDSNPVFDKTKNRVYTTYRDGNNLMIQSLNADRTSLNEEEGKVSYVYNKELKRPAFVFEKPKKNAGTQNFVSIVYPYDGQKAPEISIRENKGNDFEKGKLNLTLTINGKQQLVLVP"}, "B3": {"name": "heparinase I: enzyme heparinase I (Sigma) (protein, UniProt Q05819 22-384, looked up)", "Heparin lyase I": "QQKKSGNIPYRVNVQADSAKQKAIIDNKWVAVGINKPYALQYDDKLRFNGKPSYRFELKAEDNSLEGYAAGETKGRTELSYSYATTNDFKKFPPSVYQNAQKLKTVYHYGKGICEQGSSRSYTFSVYIPSSFPDNATTIFAQWHGAPSRTLVATPEGEIKTLSIEEFLALYDRMIFKKNIAHDKVEKKDKDGKITYVAGKPNGWKVEQGGYPTLAFGFSKGYFYIKANSDRQWLTDKADRNNANPENSEVMKPYSSEYKTSTIAYKMPFAQFPKDCWITFDVAIDWTKYGKEANTILKPGKLDVMMTYTKNKKPQKAHIVNQQEILIGRNDDDGYYFKFGIYRVGNSTVPVTYNLSGYSETAR"}},
  "key": {"[1]": {"tested_on": "monkey kidney epithelial cells of the BSC-1 line", "experiment": "Growth-promoting (mitogenic) activity: number of cells in BSC-1 cultures counted four days after addition", "assay_type": "cell-based, African green monkey", "method": "For the assay, cells were detached from the dish with a solution of trypsin and an aliquot was counted in a hemocytometer.\nNontransformed monkey kidney epithelial cells of the BSC-1 line were grown to confluence in Dulbecco's modified Eagle's medium containing 1% calf serum and […] in 55-mm culture dishes at 38° C. in a CO2 incubator. When cells achieved a density of about 10^6 per dish, the spent medium was removed and replaced with fresh medium containing 0.5% calf serum and the 14-amino acid peptide (0.5 μg/ml). Additions of each of the mitogenic signals at maximal concentration were made to the culture medium. Four days later the number of cells in each culture was counted in a hemocytometer. Values obtained were the mean of 3 separate cultures.\nNontransformed monkey kidney epithelial cells of the BSC-1 line were grown to confluence in Dulbecco's modified Eagle's medium containing 1% calf serum and 1.6 μM biotin at 38° C. in a CO2 incubator. When cells achieved a density of about 10^6 per dish, the spent medium was removed and replaced with fresh medium containing 0.5% calf serum and different amounts of the two peptides. Four days later the number of cells in each culture was counted. Each value is the mean of 3 separate cultures.\nTo delineate the sequence of the smallest peptide that could stimulate renal cell growth, synthetic peptides of different lengths were prepared (see below), and purified by reversed-phase HPLC on a C18 column.\nThe peptide of interest was then purified on a reversed-phase C18 column HPLC as described herein using a gradient of 1-80% acetonitrile in 0.1% trifluroacetic acid (TFA). The purified peptide was then lyophilized to remove the acetonitrile and TFA and the lyophilized powder was weighed, dissolved in buffer and added to the culture medium to measure its effect on the growth of monkey kidney epithelial cells as described herein. […] A value termed the K1/2, was used."}, "[2]": {"tested_on": "3T3 fibroblasts", "experiment": "Growth of 3T3 fibroblasts", "assay_type": "cell-based, murine"}, "[3]": {"experiment": "Stability of growth-promoting activity to storage, enzyme, chemicals, heat and solvents", "assay_type": "physicochemical", "from_the_text": "For the assay, cells were detached from the dish with a solution of trypsin and an aliquot was counted in a hemocytometer. […] Thus WGF stimulated cell proliferation by 30% in this assay. When high-density, quiescent cultures (3×10^6 cells/55-mm dish) were used to assay mitogenic activity by measuring [^3H]thymidine incorporation into DNA, WGF enhanced DNA synthesis about 60%. To prepare WGF, cells can be scrape-wounded every other day, yet maximal activity will be released into the conditioned medium. WGF is mitogenic for both sparse and confluent cultures of BSC-1 cells, and is stable upon storage at 4° C. to −40° C. for many weeks.\nWGF activity was also stable in 0.1% trifluoroacetic acid (TFA) (J. T. Baker, HPLC grade) and isopropanol."}, "[4]": {"tested_on": "BSC-1 cells", "experiment": "Appearance or release of WGF growth-promoting activity from BSC-1 cells (scrape wounding, heparinase)", "assay_type": "cell-based, African green monkey", "details": "for appearance of growth-promoting activity after wounding: cells preincubated 10 minutes with the protease inhibitor; for release of WGF mitogenic activity from cells into the culture media: confluent monolayer treated with the enzyme", "method": "None of these agents inhibited cell growth when added to cells of nonwounded cultures. When added to the medium after the appearance of WGF mitogenic activity, neither PMSF nor aprotinin appeared to inhibit the increment in cell proliferation.\nConfluent monolayer cultures were mechanically scraped using a 200 μL pipet tip (Continental Laboratory Products, San Diego, Calif.). […] (This process of scraping the cells has been termed “wounding” and has been used for many years as a model system to study repair of corneal abrasions of the eye. In effect, pressure is applied to cells sufficient to disrupt intercellular adhesion). To determine whether kidney epithelial cells released an autocrine growth factor into the medium after wounding, conditioned culture medium was removed from the culture dish after scrape-wounding a monolayer of BSC-1 cells. An aliquot was assayed for any growth-promoting activity on a nonwounded “detector” culture (1.2×10^6 cells per […]).\nTreatment of a confluent monolayer of BSC-1 cells with the enzyme heparinase I (Sigma), but not heparinase III (Sigma), releases WGF mitogenic activity from cells into the culture media. However, this seems to deplete WGF, at least temporarily. When cells are first treated with heparinase I, rinsed, the media aspirated, and the monolayer is then scrape-wounded, no growth-promoting activity is detected in the conditioned media."}},
  "data": [
    {"molecule": "AQPYPQGNHEA", "values": [
      {"measurement": "combined mitogenic effect with WGF (additivity)", "setting": "[1]; maximal concentrations, 11-mer with wound conditioned buffer", "result": "not additive"},
      {"measurement": "mitogenic activity on BSC-1 cells (in words)", "setting": "[1]; peptide 0.5 to 20 μg/ml, four days", "result": "to the same extent as did purified WGF protein"},
      {"measurement": "EC50", "setting": "[1]; peptide alone, BSC-1 cells, 4 days in culture, read-out: Growth-Stimulation K½", "result": 260, "unit": "nM"},
      {"measurement": "mitogenic activity on 3T3 fibroblasts", "setting": "[2]", "result": "did not stimulate growth"}
    ]},
    {"molecule": "basic fibroblast growth factor [basic FGF, reference compound]", "values": [
      {"measurement": "concentration equivalent in mitogenic potency to partially-purified WGF", "setting": "[1]", "result": 0.02, "unit": "ng/mL"},
      {"measurement": "stimulation of growth (increase in cell number compared to control at four days)", "setting": "[1]; agent alone at maximal mitogenic concentration (14-Ser 0.5 μg/ml; EGF, IGF-I 50 ng/ml; acidic FGF 100 pg/ml; basic FGF 1,000 pg/ml; vasopressin 75 pg/ml; K 10.4 mM; Na 180 mM)", "result": 18, "unit": "%"},
      {"measurement": "stimulation of growth in the presence of the 14-Ser peptide", "setting": "[1]; mitogenic signal at maximal concentration plus 14-Ser peptide 0.5 μg/ml, four days", "result": 41, "unit": "%"},
      {"measurement": "inhibition of mitogenic activity by 55% acetonitrile/0.1% (TFA)", "setting": "[3]", "result": 90, "unit": "%"}
    ]},
    {"molecule": "Cc1ccc(S(=O)(=O)N[C@@H](CCCCN)C(=O)CCl)cc1.Cl", "note": "[TLCK, L-1-chloro-3-(4-tosylamido)-7-amino-2-heptanone-hydrochloride]", "values": [
      {"measurement": "appearance of growth-promoting activity after wounding", "setting": "[4]", "result": "prevented"}
    ]},
    {"molecule": "aprotinin", "values": [
      {"measurement": "appearance of growth-promoting activity after wounding", "setting": "[4]", "result": "prevented"}
    ]},
    {"molecule": "B1", "values": [
      {"measurement": "appearance of growth-promoting activity after wounding", "setting": "[4]", "result": "prevented"}
    ]},
    {"molecule": "B2", "values": [
      {"measurement": "release of WGF mitogenic activity from cells into the culture media", "setting": "[4]", "result": "not"}
    ]},
    {"molecule": "B3", "values": [
      {"measurement": "release of WGF mitogenic activity from cells into the culture media", "setting": "[4]", "result": "releases"}
    ]}
  ]
}
